The results in this text go back to patent US9914750B2, “Synthetic peptides and peptide mimetics” (University of Louisville Research Foundation, priority 2007, dated 2018).

“Also recorded” adds a separate entry of the source. No end group written: not given here.

The test system of series [1] is RAW 264.7 cells. Description: Cell death assay, trypan blue. In kind it is cell-based, mouse. The settings on record: 200 μg/ml, 24 h. As to the method: FIG. 21: RAW Cell Viability. RAW 264.7 cells were incubated with 200 μg/ml of PSP peptides for 24 h. At the end of the incubation period the cells were stained with trypan blue and photographed in the light microscope. No significant cell death was detected with any of the peptides.
The inventors have used three different assays for analysis of cytotoxicity in mammalian cells: trypan blue exclusion, […], and ATP production. Experiments have been performed with rat pituitary GH4C1 cells and mouse RAW 264.7 cells. The cells were incubated with PSP peptides for 24 h followed by staining with trypan blue to identify permeabilized and dead cells. […] Clear cytotoxicity was noted when the cells were incubated with LPS.
RAW 264.7 cells were incubated with 200 μg/ml of PSP peptides for 24 h. At the end of the incubation period the cells were stained with trypan blue and photographed in the light microscope. No significant cell death was detected with any of the peptides (FIG. 21).

In another series the test system is C57BL/6 mice. Description: LPS sepsis model, D-galactosamine sensitized mice. In kind it is in vivo. As for the experimental part: FIG. 18. GL-13 Protects Mice in an LPS Sepsis Model. C57BL/6 mice were sensitized with D-galactosamine and injected with 100 ng/mouse (50 μg/kg) of P. aeruginosa LPS that had been preincubated for 1 h RT with or without 100 μg/mouse of GL-13. Controls received LPS and 0.9% saline. […] The results are from two independent experiments.
C57BL/6 mice were sensitized with D-galactosamine and injected with 100 ng/mouse (50 μg/kg) of P. aeruginosa LPS that had been preincubated for 1 h RT with or without 100 μg/mouse of GL-13 (FIG. 18). Controls received LPS and 0.9% saline. […] The results are from two independent experiments.

The next series concerns sheep red blood cells. Description: Hemagglutination assay. In kind it is cell-based. The settings on record: PBS, absence of serum, 2 h. As to the method: FIG. 22: Hemagglutination of sheep red blood cells. RBCs were washed in PBS and incubated for 2 h in microtiter plates in PBS±5% fetal calf serum. Peptide concentrations were 83 μg/ml. The microtiter plate was imaged. Agglutinated red blood cells form a wide mat of cells, while non-agglutinated cells form a button shaped pellet.
Briefly, unmodified sheep erythrocytes (Cappel, M P Biomedicals, Irvine, Calif.) were washed in PBS and suspended at 1% in PBS. Diluted erythrocytes and 20 μg/ml of each peptide in PBS were mixed in polypropylene microtiter plates (120 μl per well) and incubated for 2 h at 35° C. The plates were imaged on a Kodak Image station.

The conditions of series [2]: preliminary results; mice I.P. injection.
The test system of series [3] is RAW 264.7 cells. The experiment in a line: Assay for inflammation: TNFα secretion with peptides alone (ELISA). In kind it is cell-based, mouse. As to the method:
FIGS. 15A and 15B. FIG. 15A. Inhibition of endotoxin-stimulated TNFα secretion. RAW 264.7 macrophage cells were stimulated with 100 ng/ml LPS in the presence or absence of the PSP-derived peptides GK7, KL11 or GL13 (200 μg/ml). Polymyxin B (PMX) was used as a positive control. Further controls consisted of peptides alone without LPS stimulation. TNFα secretion was analyzed by ELISA of the RAW culture medium. The data are from triplicate RAW culture dishes for each condition. *) different from LPS alone P<0.03, **) P<0.0002. FIG. 15B. Dose response curve for the inhibition of LPS-induced TNFα secretion by GL-13.
To determine if the PSP peptides cause an inflammatory response in RAW 264.7 cells, the cells were incubated with each peptide for 24 h and TNFα secretion was quantitated by ELISA.
The vaccine adjuvant monophosphoryl lipid A (MPLA) a low-toxicity derivative of LPS was used to stimulate RAW cells in the presence or absence of PSP peptides (200 μg/ml) or the anti-inflammatory peptide polymyxin B (PMX). Control samples were incubated with the peptides alone.
A general note: ELISA stands for enzyme-linked immunosorbent assay.

Take “GQIINLKASLDLL-NH2 [GL13-NH2, GQIINLKASLDLL-(CONH2)]”: the “cell death of RAW 264.7 macrophages, trypan blue” value with RAW 264.7 cells [1] is given as “did not stimulate TNFα secretion or cause macrophage cell death; also recorded: did not cause cell death; also recorded: not cytotoxic to macrophages”. Further, the “lethality after intra-peritoneal injection” value in the series on C57BL/6 mice is “did not cause lethality”. In addition, the “hemagglutination (words)” value was “caused passive hemagglutination” with sheep red blood cells and “caused hemagglutination” with sheep red blood cells (listed as GL-13-NH2). Besides, the “toxicity” value in series [2] is on record as “low toxicity”. Further, the “TNFα secretion with peptide alone” value in the series with RAW 264.7 cells [3] is given as “did not stimulate TNFα secretion”.
